Data reported in patent US20050124631A1, “Inhibitors of polyq-aggregation” (priority 2001, published 2005).

- melting point: 206 °C
Structure (SMILES): Cc1ccc(Cl)c2sc(N)nc12 [Example 2, 2-Amino-7-chloro-4-methylbenzothiazole]
